Columns and labels:
[1] = tested on: polycythemic exhypoxic mice (59Fe incorporation); assay: Polycythemic exhypoxic mouse bioassay; assay type: in vivo; settings: subcutaneous
Protocol: J. Polycythemic Exhypoxic Mouse Bioassay
Female BDF1 mice (18-20 gms) are subjected to a conditioning cycle (in hypobaric chambers) of 18 hrs. at 0.40±0.02 atm. and 6 hrs. at ambient pressure for a period of 14 days.
Mice are maintained at ambient pressure for 72 hrs prior to administration of r-HuEPO or test samples. Test samples or r-HuEPO standard are diluted for injection into conditioned mice. The vehicle consists of: PBS containing 0.1% BSA (w/v). For each dilution, 0.5 ml is administered subcutaneously into each of 10 mice. ^59 Fe is administered 48 hrs. later. Blood samples are taken 48 hrs. following administration of ^59 Fe. Hematocrits and radioactivity measurements are determined for each sample. Dose range and results (two different assays) are set forth in Table 22 and FIGS. 17A-17C, infra.

[2] = tested on: murine bone marrow cells; assay: Colony assay, murine bone marrow; assay type: cell-based; settings: EPO
Protocol: (§1) G. Colony Assay: Murine Bone Marrow and Human Peripheml Blood Colony Assay
(§2) A ten milliliter sample of peripheral blood was obtained from a healthy individual in a standard sterile heparin vacutainer tube. Murine bone marrow was obtained from the femurs of approximately 10 mice per experiment. All reagents were obtained from Stem Cell Technologies Inc. (Vancouver, Canada).
(§3) a. Experimental Protocol: Briefly, a nucleated cell count was performed to establish the number and concentration of nucleated cells in the original sample. In the case of peripheral blood, the sample is subjected to centrifugation through a Ficoll-Hypaque (1.077 g per ml) gradient at 400 g for 30 minutes at room temperature. Mononuclear cells at the interface of the Ficoll-Hypaque solution are carefully removed and diluted to a total volume of about 10 ml. The cells obtained from murine bone marrow or human peripheral blood were collected by centrifugation and the supernatant was decanted. The pelleted cells were resuspended in fresh medium and subjected to collection as described above. The washed cells were diluted in Iscove's medium/2% fetal bovine serum to the following concentration for plating:
Normal marrow: 1×10^5 light density cells
(§4) Cells were added to methyl cellulose per directions of the manufacturer. […] Equivalent cell numbers were plated in "Complete" methylcellulose medium to assess maximal colony formation. A control plate was run with each assay minus EPO and peptide to determine background colony formation. Colonies were scored after both 10 days and 18 days of incubation.

[3] = tested on: human peripheral blood mononuclear cells; assay: Colony assay on a human peripheral blood specimen; assay type: cell-based
Protocol: as §1, §2, §3
Normal blood: 4×10^5 light density cells
as §4

[4] = tested on: FDCP-1/muER cells; assay: Peptide-induced initiation of cell cycle measured by DNA content; assay type: cell-based, murine; settings: 10 U/ml; ten hours postinduction; medium control 15%
Protocol: F. Cellular response kinetics: Peptide-Induced Initiation of Cell Cycle Measured By DNA Content
1. Experimental Protocol: FDCP-1/muER cells were grown to stationery phase ≈3.0×10^6 cells/ml. […] Three million cells were collected at the following time points: 0, 6, 8, 10, and 12 hr. (see, FIG. 15). Cells were washed twice in cold PBS and fixed by resuspending the cell pellet in 100 μl of cold PBS followed by 900 μl of cold 70% ethanol. Cells were stained with 50 μg/ml of propidium iodine and fluorescence was measured on FACS Scan Flow cytometer. The percentage of cells in each phase was measured using the SOBR model of CelIFIT software, by Becton Dickinson.

[5] = scored 2/23/94, EPO (METHOCULT)

## EPO: Erythropoietin, glycoprotein hormone with 165 amino acids; recombinant standard
[1]; dose 0.025 U
  LOG MEAN: 1.65
[1]; dose 0.050 U
  LOG MEAN: 2.74
[1]; dose 0.100 U
  LOG MEAN: 3.28
[2]; Table 14 (1/28/94), 2/10/94
  BFU-E colony-forming cell numbers: 5
  CFU-E colony-forming cell numbers: 23
  CFU-GM colony-forming cell numbers: 3
[2]; Table 14 (1/28/94), 2/21/94
  BFU-E colony-forming cell numbers: 30
  CFU-E colony-forming cell numbers: 0
  CFU-GM colony-forming cell numbers: 3
[2]; Table 15 (2/21/94), 3/1/94
  BFU-E colony-forming cell numbers: 3
  CFU-E colony-forming cell numbers: 3
  CFU-GM colony-forming cell numbers: > 10
[2]; Table 15 (2/21/94), 3/14/94
  CFU-E colony-forming cell numbers: 0
  CFU-GM colony-forming cell numbers: 26
  MBFU-E colony-forming cell numbers: 0
  PBFU-E colony-forming cell numbers: 10
[3]; scored 2/23/94, 3 U/ml
  CFU-E: 7
  MBFU-E: 7
[3]; [5]
  CFU-E: 11
  MBFU-E: 25
[3]; scored 3/4/94, 3 U/ml
  CFU-E: 4
  CFU-GM: 3
  MBFU-E: 7
  PBFU-E: 7
[3]; scored 3/4/94, EPO (METHOCULT)
  CFU-E: 1
  CFU-GM: 9
  MBFU-E: 11
  PBFU-E: 13
[4]
  cells in S phase: approximately 45%

Source: US5773569A (Affymax Technologies N.V., priority 1995, dated 1998)
